# Assay results from patent US20170008888A1 (KYORIN PHARMACEUTICAL CO., LTD., priority 2014, published 2017).
# How the values were obtained:
# human PBMCs = experiment: Human PBMC TNF-α response to endotoxin (ELISA); assay type: cell-based; conditions: 0.1 μg/ml LPS 16 h, read-out: EC50 for the inhibition of the human PBMC TNF-α response to endotoxin, ave. ± S.D.
# How it was run: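 PBMCs at 2e6 cells/ml in RPMI 1640 with 10% charcoal-dextran-treated FBS were pre-treated 1 h at 37 °C with compound (4-point 1:5 dilution from 10 μM). Stimulation with 0.1 μg/ml E. coli 0111:B4 LPS for 16 h; TNF-α measured by ELISA (A450) in 25-fold diluted supernatant.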
# AurA = target: T1, AurA (Homo sapiens, UniProt O14965); experiment: Probe-based (AX9989) kinase profiling in Jurkat lysate: AurA; assay type: binding; conditions: read-out: Kinase inhibition % at indicated screening concentration: AurA; for inhibition at 1 µM: screening concentration 1.0 μM; for inhibition at 0.1 µM: screening concentration 0.1 μM
# T1 construct: screened for activity against several kinases in Jurkat cells; endogenous in cells; host or cells: Jurkat cell lysate
# T1 sequence (O14965 1-403): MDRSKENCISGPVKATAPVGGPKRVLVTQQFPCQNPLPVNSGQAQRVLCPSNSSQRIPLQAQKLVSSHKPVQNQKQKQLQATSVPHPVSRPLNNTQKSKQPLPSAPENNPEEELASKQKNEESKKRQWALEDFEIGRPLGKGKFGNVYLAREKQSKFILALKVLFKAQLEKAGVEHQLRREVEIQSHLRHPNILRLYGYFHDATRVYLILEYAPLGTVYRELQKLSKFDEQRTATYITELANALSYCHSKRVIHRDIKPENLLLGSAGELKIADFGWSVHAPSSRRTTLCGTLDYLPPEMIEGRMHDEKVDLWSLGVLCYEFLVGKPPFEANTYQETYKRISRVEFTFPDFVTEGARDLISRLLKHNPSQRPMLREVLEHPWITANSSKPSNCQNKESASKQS
# How it was run: (§1)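 Gel-filtered Jurkat lysate (HEPES pH 7.5, 20 mM MnCl2, 5 mg/ml) was pre-incubated 15 min with compound at room temperature, then labelled with 5 μM acyl-phosphate ATP probe AX9989. Tryptic probe-labelled active-site peptides were streptavidin-captured and quantified by LC/MS. Percent inhibition reflected the decrease in labelled-peptide intensity versus no compound.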
# [1] = target: T2, BRD4 bromodomain domain I [BRD4(1)] (Homo sapiens, UniProt O60885); experiment: BRD4 bromodomain domain 1 inhibition assay (TR-FRET); assay type: binding; conditions: screening concentration 10 μM
# T2 construct: BRD4 bromodomain domain I [BRD4(1)]; purchased Cayman Chemicals
# How it was run: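 0.5% DMSO, in triplicate, using Cayman BRD4(1) TR-FRET protocol with slight modification. 670/620 nm ratio normalized to 10 μM JQ1, with DMSO control set as 0% inhibition.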
# ABL or ARG = experiment: Probe-based (AX9989) kinase profiling in Jurkat lysate: ABL or ARG; assay type: binding
# How it was run: as §1
# AMPKa1 or AMPKa2 = experiment: Probe-based (AX9989) kinase profiling in Jurkat lysate: AMPKa1 or AMPKa2; assay type: binding
# How it was run: as §1
# AurB or AurC = experiment: Probe-based (AX9989) kinase profiling in Jurkat lysate: AurB or AurC; assay type: binding
# How it was run: as §1
# ACK = target: T3, ACK (Homo sapiens, UniProt Q07912); experiment: Probe-based (AX9989) kinase profiling in Jurkat lysate: ACK; assay type: binding; conditions: read-out: Kinase inhibition % at indicated screening concentration: ACK; for inhibition at 1 µM: screening concentration 1.0 μM; for inhibition at 0.1 µM: screening concentration 0.1 μM
# T3 construct: screened for activity against several kinases in Jurkat cells; endogenous in cells; host or cells: Jurkat cell lysate
# T3 sequence (Q07912 whole entry): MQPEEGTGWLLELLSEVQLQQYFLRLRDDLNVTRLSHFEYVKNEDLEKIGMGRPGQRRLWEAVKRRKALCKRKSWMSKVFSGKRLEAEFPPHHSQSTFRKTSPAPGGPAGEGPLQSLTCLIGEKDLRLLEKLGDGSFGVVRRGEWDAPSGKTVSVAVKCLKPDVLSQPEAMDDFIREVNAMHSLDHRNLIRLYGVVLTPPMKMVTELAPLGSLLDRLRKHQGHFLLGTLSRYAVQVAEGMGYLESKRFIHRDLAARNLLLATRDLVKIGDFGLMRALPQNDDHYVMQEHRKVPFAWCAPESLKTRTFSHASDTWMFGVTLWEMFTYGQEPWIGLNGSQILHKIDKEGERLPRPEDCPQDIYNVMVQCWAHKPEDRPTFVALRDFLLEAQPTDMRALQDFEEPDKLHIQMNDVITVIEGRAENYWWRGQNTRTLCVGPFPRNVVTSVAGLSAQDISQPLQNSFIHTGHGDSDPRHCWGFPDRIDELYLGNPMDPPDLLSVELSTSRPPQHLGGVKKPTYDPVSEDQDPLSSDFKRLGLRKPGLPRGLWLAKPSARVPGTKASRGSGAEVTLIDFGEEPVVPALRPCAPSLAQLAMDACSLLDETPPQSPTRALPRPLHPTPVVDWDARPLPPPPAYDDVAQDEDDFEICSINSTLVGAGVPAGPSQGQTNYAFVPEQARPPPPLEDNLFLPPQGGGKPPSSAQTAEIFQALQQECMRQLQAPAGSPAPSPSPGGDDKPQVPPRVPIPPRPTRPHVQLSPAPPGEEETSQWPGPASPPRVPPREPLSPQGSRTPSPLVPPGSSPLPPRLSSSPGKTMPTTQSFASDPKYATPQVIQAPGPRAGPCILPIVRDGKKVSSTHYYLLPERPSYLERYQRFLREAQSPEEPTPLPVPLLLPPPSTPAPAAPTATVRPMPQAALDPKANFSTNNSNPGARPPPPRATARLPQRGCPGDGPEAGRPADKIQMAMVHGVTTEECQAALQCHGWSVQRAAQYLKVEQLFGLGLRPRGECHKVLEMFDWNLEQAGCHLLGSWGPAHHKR
# How it was run: as §1
SMILES,EC50 (human PBMCs),inhibition at 1 µM (AurA),inhibition at 10 µM [1],Kinase inhibition % at indicated screening concentration: ABL or ARG (ABL or ARG; screening concentration 1.0 μM),Kinase inhibition % at indicated screening concentration: AMPKa1 or AMPKa2 (AMPKa1 or AMPKa2; screening concentration 1.0 μM),Kinase inhibition % at indicated screening concentration: AurB or AurC (AurB or AurC; screening concentration 1.0 μM),inhibition at 1 µM (ACK),inhibition at 0.1 µM (AurA),Kinase inhibition % at indicated screening concentration: ABL or ARG (ABL or ARG; screening concentration 0.1 μM),Kinase inhibition % at indicated screening concentration: AMPKa1 or AMPKa2 (AMPKa1 or AMPKa2; screening concentration 0.1 μM),Kinase inhibition % at indicated screening concentration: AurB or AurC (AurB or AurC; screening concentration 0.1 μM),inhibition at 0.1 µM (ACK)
CCOc1cc(C(=O)N2CCCCC2)ccc1Nc1cc2c(cn1)N(C)C(=O)c1ccccc1N2C [Compound 12],630 nM,≤ 35%,70 to 85%,E (E is ≦35%),E (E is ≦35%),E (E is ≦35%),≤ 35%,,,,,
CCOc1cc(C(=O)N2CCNC[C@@H]2C)ccc1Nc1cc2c(cn1)N(C)C(=O)c1ccccc1N2C [Compound 31],1250 nM,,> 85%,,,,,≤ 35%,E (E is ≦35%),E (E is ≦35%),E (E is ≦35%),≤ 35%
CCOc1cc(C(=O)N(C)CCN2CCCC2)ccc1Nc1cc2c(cn1)N(C)C(=O)c1ccccc1N2C [Compound 28],480 nM,,> 85%,,,,,≤ 35%,E (E is ≦35%),E (E is ≦35%),E (E is ≦35%),≤ 35%
CCOc1cc(C(=O)NCCN2CCN(C)CC2)ccc1Nc1cc2c(cn1)N(C)C(=O)c1ccccc1N2C [Compound 44],590 nM,≤ 35%,70 to 85%,E (E is ≦35%),E (E is ≦35%),E (E is ≦35%),≤ 35%,,,,,
CN1C(=O)c2ccccc2N(C)c2cc(N[C@H]3CC[C@H](NC4=NCCO4)CC3)ncc21 [Compound 45],1580 nM,≤ 35%,< 70%,E (E is ≦35%),E (E is ≦35%),E (E is ≦35%),≤ 35%,,,,,
CCOc1cc(C(=O)N2CCC(NC)C2)ccc1Nc1cc2c(cn1)N(C)C(=O)c1occc1N2C (stereo not shown) [Compound 43],1480 nM,,> 85%,,,,,≤ 35%,E (E is ≦35%),E (E is ≦35%),E (E is ≦35%),≤ 35%
CCOc1cc(C(=O)N2CC[C@@H](N(C)C)C2)ccc1Nc1cc2c(cn1)N(C)C(=O)c1occc1N2C [Compound 25],1170 ± 70 nM,,> 85%,,,,,≤ 35%,E (E is ≦35%),E (E is ≦35%),E (E is ≦35%),≤ 35%
CCOc1cc(C(=O)N(C)CCN(CC)CC)ccc1Nc1cc2c(cn1)N(C)C(=O)c1ccccc1N2C [Compound 42],650 nM,≤ 35%,> 85%,E (E is ≦35%),E (E is ≦35%),E (E is ≦35%),≤ 35%,,,,,
CCOc1cc(C(=O)N2CCC(N3CCCC3)C2)ccc1Nc1cc2c(cn1)N(C)C(=O)c1occc1N2C (stereo not shown) [Compound 15],490 ± 30 nM,,> 85%,,,,,≤ 35%,E (E is ≦35%),E (E is ≦35%),E (E is ≦35%),≤ 35%
CCOc1cc(C(=O)N2CC[C@H](O)C2)ccc1Nc1cc2c(cn1)N(C)C(=O)c1occc1N2C [Compound 17],2230 nM,,> 85%,,,,,≤ 35%,E (E is ≦35%),E (E is ≦35%),E (E is ≦35%),≤ 35%
CCOc1cc(C(=O)N2CCN(CCO)CC2)ccc1Nc1cc2c(cn1)N(C)C(=O)c1ccccc1N2C [Compound 37],960 nM,,70 to 85%,,,,,≤ 35%,E (E is ≦35%),E (E is ≦35%),E (E is ≦35%),≤ 35%
CCOc1cc(C(=O)N2CCN(C3CC3)CC2)ccc1Nc1cc2c(cn1)N(C)C(=O)c1ccccc1N2C [Compound 39],1770 nM,,< 70%,,,,,≤ 35%,E (E is ≦35%),E (E is ≦35%),E (E is ≦35%),≤ 35%
CCOc1cc(C(=O)N2CCC(N3CCN(C)CC3)CC2)ccc1Nc1cc2c(cn1)N(C)C(=O)c1ncccc1N2C [Compound 40],> 10000 nM,≤ 35%,< 70%,E (E is ≦35%),E (E is ≦35%),E (E is ≦35%),≤ 35%,,,,,
CCOc1cc(C(=O)N(C)CCn2ccnc2)ccc1Nc1cc2c(cn1)N(C)C(=O)c1ccccc1N2C [Compound 30],1260 ± 170 nM,,70 to 85%,,,,,≤ 35%,E (E is ≦35%),E (E is ≦35%),E (E is ≦35%),≤ 35%
C=CCN1CCN(C(=O)c2ccc(Nc3cc4c(cn3)N(C)C(=O)c3ccccc3N4C)c(OCC)c2)CC1 [Compound 21],1220 nM,,70 to 85%,,,,,≤ 35%,E (E is ≦35%),E (E is ≦35%),E (E is ≦35%),≤ 35%
CCOc1cc(C(=O)N2CC[C@@H](N3CCCC3)C2)ccc1Nc1cc2c(cn1)N(C)C(=O)c1ccccc1N2C [Compound 24],910 nM,,> 85%,,,,,≤ 35%,E (E is ≦35%),E (E is ≦35%),E (E is ≦35%),≤ 35%
